Measured values published in patent publication US10689429B2, “Double-acylated GLP-1 compounds” (Novo Nordisk A/S, priority 2014, dated 2020).
Like-named read-outs stand apart in the source and are kept apart here. *1 amine or outer side, *2 acyl side, *3 side chain or, on linkers, in order; H or OH if unused. Where a SMILES comes first, the peptide text is derived from it. Side-chain parts run from the residue outwards. [ ]: non-standard residue; d: D form. The star is where a group is joined. Undecanoyl(11-OPh(4-COOH)) = O=C(O)c1ccc(OCCCCCCCCCCC(=O)*)cc1; γGlu = O=C(O)[C@H](CCC(=O)[*:2])N[*:1]; AEEA = NCCOCCOCC(=O)O; Aib = CC(C)(N)C(=O)O

Tests used:
human GLP-1 receptor [1] = molecular target: T1, human GLP-1 receptor (Homo sapiens, UniProt P43220); experiment: In vitro potency, CRE luciferase reporter gene assay in BHK cells expressing the human GLP-1 receptor; assay type: cell-based; conditions: average of duplicates;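 further: firefly luciferase luminescence read after 3 h incubation at 37 °C, compounds tested in an eight-point series from 0.01 pM to 100 nM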
T1 construct: expressed in transfected cells; host or cells: membranes from BHK cells, parent line BHKTS13, clone FCW467-12A
Target sequence in this assay (P43220 24-463): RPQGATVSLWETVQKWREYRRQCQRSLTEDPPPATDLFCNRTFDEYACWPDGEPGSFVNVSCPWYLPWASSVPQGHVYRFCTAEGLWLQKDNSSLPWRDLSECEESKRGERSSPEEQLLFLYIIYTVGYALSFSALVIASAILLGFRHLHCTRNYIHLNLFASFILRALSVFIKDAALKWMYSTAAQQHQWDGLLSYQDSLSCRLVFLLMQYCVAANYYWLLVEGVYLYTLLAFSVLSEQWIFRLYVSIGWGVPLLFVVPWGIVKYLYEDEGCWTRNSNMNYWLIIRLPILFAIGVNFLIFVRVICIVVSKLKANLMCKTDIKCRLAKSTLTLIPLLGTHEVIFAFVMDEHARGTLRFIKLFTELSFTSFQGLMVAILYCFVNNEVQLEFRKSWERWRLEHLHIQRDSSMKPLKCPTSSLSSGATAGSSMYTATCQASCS

human GLP-1 receptor [2] = molecular target: T1, human GLP-1 receptor; experiment: GLP-1 receptor binding, competitive 125I-GLP-1 SPA binding assay on isolated membranes; conditions: low HSA (max. 0.001% final assay concentration)
[3] = Pharmacokinetic study in mini pigs after i.v. administration; assay type: in vivo; conditions: female, Göttingen, pig, plasma, iv, 2 nmol/kg; read-out: Minipig iv PK, t½ (converted)
Description: The purpose of this study is to determine the protraction in vivo of the GLP-1 derivatives after i.v. administration to mini pigs, i.e. the prolongation of their time in the body and thereby their time of action. This was done in pharmacokinetic (PK) studies, where the terminal half-life of the derivative in question was determined. By terminal half-life is generally meant the period of time it takes to halve a certain plasma concentration, measured after the initial distribution phase.
Female Göttingen mini pigs obtained from Ellegaard Göttingen Minipigs (Dalmose, Denmark) at approximately 5 months of age and weighing approximately 10 kg were used in the studies. The mini pigs were housed in pens with straw as bedding, four to six together in each pen and fed restrictedly once or twice daily with Altromin 9023 mini pig diet (Chr. Petersen A/S, DK-4100 Ringsted). The pigs were used for repeated pharmacokinetic studies with a suitable wash-out period between successive GLP-1 derivative dosings. An acclimatisation period of 1 week was allowed during which time the mini pigs were trained to be fixated on the back for blood sampling and in slings for i.v. dosing. All handling, dosing and blood sampling of the animals was performed by trained and skilled staff.
The GLP-1 derivatives were dissolved in 50 mM sodium phosphate, 70 mM sodium chloride, 0.05% tween 80, pH 7.4 to a concentration of approximately 20 nmol/ml. Intravenous injections (the volume corresponding to usually 2 nmol/kg, for example 0.1 ml/kg) of the compounds were given as intravenous injections via a Venflon inserted in an ear vein, while the animals were placed un-anaesthetised in a sling. The dose volume was 0.1 ml/kg, and blood was sampled at predefined time points for up till 13 days post dosing (samples were taken with a syringe from a jugular vein). Blood samples (for example 0.8 ml) were collected in EDTA buffer (8 mM) and then centrifuged at 4° C. and 2000 G for 10 minutes.
Individual plasma concentration-time profiles were analysed by a non-compartmental model in WinNonlin v. […] 6.2 or 6.3 (Pharsight Inc., Mountain View, Calif., USA), or other relevant software for PK analysis, and the resulting terminal half-lives determined.

[4] = EC50/pM (1% HSA), 1% HSA final assay concentration

Row | SMILES | EC50 (human GLP-1 receptor [1]; EC50/pM (0% HSA), 0% HSA) [pM] | EC50 (human GLP-1 receptor [1]; [4]) [pM] | IC50 (human GLP-1 receptor [2]; IC50/nM (low HSA)) [nM] | half-life [3] [h] | EC50 (human GLP-1 receptor [1]; 0% HSA, read-out: EC50/pM (0% HSA)) [pM] | IC50 (human GLP-1 receptor [2]; read-out: IC50/nM (low HSA)) [nM]
1 | CC[C@H](C)[C@H](NC(=O)[C@H](Cc1ccccc1)NC(=O)[C@H](CCC(=O)O)NC(=O)[C@H](CCCNC(=N)N)NC(=O)[C@H](C)NC(=O)[C@H](C)NC(=O)[C@H](CCC(N)=O)NC(=O)[C@H](CCC(=O)O)NC(=O)[C@H](CCC(=O)O)NC(=O)[C@H](CC(C)C)NC(=O)[C@H](Cc1ccc(O)cc1)NC(=O)[C@H](CO)NC(=O)[C@H](CO)NC(=O)[C@@H](NC(=O)[C@H](CC(=O)O)NC(=O)[C@H](CO)NC(=O)[C@@H](NC(=O)[C@H](Cc1ccccc1)NC(=O)[C@@H](NC(=O)CNC(=O)[C@H](CCC(=O)O)NC(=O)C(C)(C)NC(=O)[C@@H](N)Cc1c[nH]cn1)[C@@H](C)O)[C@@H](C)O)C(C)C)C(=O)N[C@@H](C)C(=O)N[C@@H](Cc1c[nH]c2ccccc12)C(=O)N[C@@H](CC(C)C)C(=O)N[C@H](C(=O)N[C@@H](CCCNC(=N)N)C(=O)NCC(=O)N[C@@H](CCCCNC(=O)COCCOCCNC(=O)COCCOCCNC(=O)CC[C@H](NC(=O)CCCCCCCCCOc1ccc(C(=O)O)cc1)C(=O)O)C(=O)N[C@@H](CCCCNC(=O)COCCOCCNC(=O)COCCOCCNC(=O)CC[C@H](NC(=O)CCCCCCCCCOc1ccc(C(=O)O)cc1)C(=O)O)C(=O)O)C(C)C [Example 3, N{Epsilon-36}-[2-[2-[2-[[2-[2-[2-[[(4S)-4-carboxy-4-[10-(4-carboxyphenoxy)decanoylamino]butanoyl]amino]ethoxy]ethoxy]acetyl]amino]ethoxy]ethoxy]acetyl], N{Epsilon-37}-[2-[2-[2-[[2-[2-[2-[[(4S)-4-carboxy-4-[10-(4-carboxyphenoxy)decanoylamino]butanoyl]amino]ethoxy]ethoxy]acetyl]amino]ethoxy]ethoxy]acetyl]-[Aib8,Glu22,Arg26,Arg34,Lys36,Lys37]-GLP-1-(7-37)-peptide] | 1.2 | 28 | 0.19 | 71 |  | 
2 | CC[C@H](C)[C@H](NC(=O)[C@H](Cc1ccccc1)NC(=O)[C@H](CCC(=O)O)NC(=O)[C@H](CCCNC(=N)N)NC(=O)[C@H](C)NC(=O)[C@H](C)NC(=O)[C@H](CCC(N)=O)NC(=O)[C@H](CCC(=O)O)NC(=O)[C@H](CCC(=O)O)NC(=O)[C@H](CC(C)C)NC(=O)[C@H](Cc1ccc(O)cc1)NC(=O)[C@H](CO)NC(=O)[C@H](CO)NC(=O)[C@@H](NC(=O)[C@H](CC(=O)O)NC(=O)[C@H](CO)NC(=O)[C@@H](NC(=O)[C@H](Cc1ccccc1)NC(=O)[C@@H](NC(=O)CNC(=O)[C@H](CCC(=O)O)NC(=O)C(C)(C)NC(=O)[C@@H](N)Cc1c[nH]cn1)[C@@H](C)O)[C@@H](C)O)C(C)C)C(=O)N[C@@H](C)C(=O)N[C@@H](Cc1c[nH]c2ccccc12)C(=O)N[C@@H](CC(C)C)C(=O)N[C@H](C(=O)N[C@@H](CCCNC(=N)N)C(=O)NCC(=O)N[C@@H](CCCCNC(=O)COCCOCCNC(=O)COCCOCCNC(=O)CC[C@H](NC(=O)CCCCCCCCCCCCC(=O)O)C(=O)O)C(=O)N[C@@H](CCCCNC(=O)COCCOCCNC(=O)COCCOCCNC(=O)CC[C@H](NC(=O)CCCCCCCCCCCCC(=O)O)C(=O)O)C(=O)O)C(C)C [Example 5, N{Epsilon-36}-[2-[2-[2-[[2-[2-[2-[[(4S)-4-carboxy-4-(13-carboxytridecanoylamino)butanoyl]amino]ethoxy]ethoxy]acetyl]amino]ethoxy]ethoxy]acetyl], N{Epsilon-37}-[2-[2-[2-[[2-[2-[2-[[(4S)-4-carboxy-4-(13-carboxytridecanoylamino)butanoyl]amino]ethoxy]ethoxy]acetyl]amino]ethoxy]ethoxy]acetyl]-[Aib8,Glu22,Arg26,Arg34,Lys36,Lys37]-GLP-1-(7-37)-peptide] |  | 22 |  | 99 | 1.1 | 0.2
3 | CC[C@H](C)[C@H](NC(=O)[C@H](Cc1ccccc1)NC(=O)[C@H](CCC(=O)O)NC(=O)[C@H](CCCNC(=N)N)NC(=O)[C@H](C)NC(=O)[C@H](C)NC(=O)[C@H](CCC(N)=O)NC(=O)[C@H](CCC(=O)O)NC(=O)[C@H](CCC(=O)O)NC(=O)[C@H](CC(C)C)NC(=O)[C@H](Cc1ccc(O)cc1)NC(=O)[C@H](CO)NC(=O)[C@H](CO)NC(=O)[C@@H](NC(=O)[C@H](CC(=O)O)NC(=O)[C@H](CO)NC(=O)[C@@H](NC(=O)[C@H](Cc1ccccc1)NC(=O)[C@@H](NC(=O)CNC(=O)[C@H](CCC(=O)O)NC(=O)C(C)(C)NC(=O)[C@@H](N)Cc1c[nH]cn1)[C@@H](C)O)[C@@H](C)O)C(C)C)C(=O)N[C@@H](C)C(=O)N[C@@H](Cc1c[nH]c2ccccc12)C(=O)N[C@@H](CC(C)C)C(=O)N[C@H](C(=O)N[C@@H](CCC(N)=O)C(=O)NCC(=O)N[C@@H](CCCCNC(=O)COCCOCCNC(=O)COCCOCCNC(=O)CC[C@H](NC(=O)CCCCCCCCCCOc1ccc(C(=O)O)cc1)C(=O)O)C(=O)N[C@@H](CCCCNC(=O)COCCOCCNC(=O)COCCOCCNC(=O)CC[C@H](NC(=O)CCCCCCCCCCOc1ccc(C(=O)O)cc1)C(=O)O)C(=O)O)C(C)C [Example 7] (H-H[Aib]EGTFTSDVSSYLEEQAAREFIAWLVQGK([AEEA-AEEA-γGlu-Undecanoyl(11-OPh(4-COOH))])K([AEEA-AEEA-γGlu-Undecanoyl(11-OPh(4-COOH))])-OH; N-terminus and C-terminus assumed) | 1.5 | 143 | 0.47 | 107 |  | 
4 | CC[C@H](C)[C@H](NC(=O)[C@H](Cc1ccccc1)NC(=O)[C@H](CCC(=O)O)NC(=O)[C@H](CCCNC(=N)N)NC(=O)[C@H](C)NC(=O)[C@H](C)NC(=O)[C@H](CCC(N)=O)NC(=O)[C@H](CCC(=O)O)NC(=O)[C@H](CCC(=O)O)NC(=O)[C@H](CC(C)C)NC(=O)[C@H](Cc1ccc(O)cc1)NC(=O)[C@H](CO)NC(=O)[C@H](CO)NC(=O)[C@@H](NC(=O)[C@H](CC(=O)O)NC(=O)[C@H](CO)NC(=O)[C@@H](NC(=O)[C@H](Cc1ccccc1)NC(=O)[C@@H](NC(=O)CNC(=O)[C@H](CCC(=O)O)NC(=O)C(C)(C)NC(=O)[C@@H](N)Cc1c[nH]cn1)[C@@H](C)O)[C@@H](C)O)C(C)C)C(=O)N[C@@H](C)C(=O)N[C@@H](Cc1c[nH]c2ccccc12)C(=O)N[C@@H](CC(C)C)C(=O)N[C@H](C(=O)N[C@@H](CCCNC(=N)N)C(=O)NCC(=O)N[C@@H](CCCCNC(=O)COCCOCCNC(=O)COCCOCCNC(=O)CC[C@H](NC(=O)CCCCCCCCOc1cccc(C(=O)O)c1)C(=O)O)C(=O)N[C@@H](CCCCNC(=O)COCCOCCNC(=O)COCCOCCNC(=O)CC[C@H](NC(=O)CCCCCCCCOc1cccc(C(=O)O)c1)C(=O)O)C(=O)O)C(C)C [Example 23, N{Epsilon-36}-[2-[2-[2-[[2-[2-[2-[[(4S)-4-carboxy-4-[9-(3-carboxyphenoxy)nonanoylamino]butanoyl]amino]ethoxy]ethoxy]acetyl]amino]ethoxy]ethoxy]acetyl], N{Epsilon-37}-[2-[2-[2-[[2-[2-[2-[[(4S)-4-carboxy-4-[9-(3-carboxyphenoxy)nonanoylamino]butanoyl]amino]ethoxy]ethoxy]acetyl]amino]ethoxy]ethoxy]acetyl]-[Aib8,Glu22,Arg26,Arg34,Lys36,Lys37]-GLP-1-(7-37)-peptide] | 7.7 | 15 | 0.29 |  |  | 
5 | CC[C@H](C)[C@H](NC(=O)[C@H](Cc1ccccc1)NC(=O)[C@H](CCC(=O)O)NC(=O)[C@H](CCCNC(=N)N)NC(=O)[C@H](C)NC(=O)[C@H](C)NC(=O)[C@H](CCC(N)=O)NC(=O)[C@H](CCC(=O)O)NC(=O)[C@H](CCC(=O)O)NC(=O)[C@H](CC(C)C)NC(=O)[C@H](Cc1ccc(O)cc1)NC(=O)[C@H](CO)NC(=O)[C@H](CO)NC(=O)[C@@H](NC(=O)[C@H](CC(=O)O)NC(=O)[C@H](CO)NC(=O)[C@@H](NC(=O)[C@H](Cc1ccccc1)NC(=O)[C@@H](NC(=O)CNC(=O)[C@H](CCC(=O)O)NC(=O)C(C)(C)NC(=O)[C@@H](N)Cc1c[nH]cn1)[C@@H](C)O)[C@@H](C)O)C(C)C)C(=O)N[C@@H](C)C(=O)N[C@@H](Cc1c[nH]c2ccccc12)C(=O)N[C@@H](CC(C)C)C(=O)N[C@H](C(=O)N[C@@H](CCCNC(=N)N)C(=O)NCC(=O)N[C@@H](CCCCNC(=O)COCCOCCNC(=O)COCCOCCNC(=O)CC[C@H](NC(=O)CCCCCCCCCCCOc1ccc(C(=O)O)cc1)C(=O)O)C(=O)N[C@@H](CCCCNC(=O)COCCOCCNC(=O)COCCOCCNC(=O)CC[C@H](NC(=O)CCCCCCCCCCCOc1ccc(C(=O)O)cc1)C(=O)O)C(=O)O)C(C)C [Example 26, N{Epsilon-36}-[2-[2-[2-[[2-[2-[2-[[(4S)-4-carboxy-4-[12-(4-carboxyphenoxy)dodecanoylamino]butanoyl]amino]ethoxy]ethoxy]acetyl]amino]ethoxy]ethoxy]acetyl], N{Epsilon-37}-[2-[2-[2-[[2-[2-[2-[[(4S)-4-carboxy-4-[12-(4-carboxyphenoxy)dodecanoylamino]butanoyl]amino]ethoxy]ethoxy]acetyl]amino]ethoxy]ethoxy]acetyl]-[Aib8,Glu22,Arg26,Arg34,Lys36,Lys37]-GLP-1-(7-37)-peptide] | 1.5 | 124 | 0.29 |  |  | 
